From publication PMC5504357, “Antifungal Potential of Copper(II), Manganese(II) and Silver(I) 1,10-Phenanthroline Chelates Against Multidrug-Resistant Fungal Species Forming the Candida haemulonii Complex: Impact on the Planktonic and Biofilm Lifestyles” (Frontiers in Microbiology, 2017)
Read-outs that look alike come from different tables or passages of the source.

How the values were obtained:
Candida duobushaemulonii [1] = test: Planktonic growth, broth microdilution (CLSI M27-A3), MIC; assay type: cell-based; conditions: for GM-MIC: geometric mean of three C. duobushaemulonii isolates; for MIC: planktonic, 48 h, 37°C
How it was run: (§1)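 Clinical isolates (nail, blood, urine) grown 48 h at 37°C in Sabouraud-dextrose, then tested by CLSI M27-A3 broth microdilution in RPMI 1640 over 0.0625-32 mg/L, 48 h at 37°C. MIC is the lowest concentration with no visible growth; geometric mean MIC calculated across all isolates.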

[2] = tested on: Candida haemulonii var. vulnera; test: as above; assay type: cell-based; conditions: for GM-MIC: geometric mean of three C. haemulonii var. vulnera isolates; for MIC: planktonic, 48 h, 37°C
How it was run: as §1

Candida haemulonii [3] = test: as above; assay type: cell-based; conditions: for GM-MIC: geometric mean of three C. haemulonii isolates; for MIC: planktonic, 48 h, 37°C
How it was run: as §1

C. haemulonii complex = test: Planktonic growth, overall across all nine isolates; assay type: cell-based, Candida haemulonii complex; conditions: geometric mean across all nine strains; for MIC: in μM, read-out: Overall GM-MIC
How it was run: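 Following CLSI M27-A3, compounds were serially diluted in RPMI 1640 (0.0625-32 mg/L) and incubated with isolates at 37°C for 48 h. Visual reading gave the MIC as the lowest growth-free concentration, and MICs were pooled as a geometric mean over isolates; inocula came from 48 h Sabouraud-dextrose cultures.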

A549 cells = test: Mammalian cell toxicity (MTT assay) and selectivity index; assay type: cell-based, Human
How it was run: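 A549 cells were exposed to compounds (0.0313–512 μg/mL) in DMEM for 48 h at 37 °C, 5% CO2. Viability was measured by MTT (3 h, dark), with formazan dissolved in DMSO and read at 450 nm. CC50 was derived, and SI calculated as A549 CC50 divided by C. haemulonii complex GM-MIC.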

Candida duobushaemulonii [4] = test: Biofilm-growing cells, XTT assay, bMIC; assay type: cell-based; conditions: for GM-bMIC: geometric mean, C. duobushaemulonii isolates; for bMIC: mature biofilm, 48 h, 50% inhibition of metabolic activity
Experimental: (§2) The effect of the compounds on biofilm-growing cells was determined using the previously described microtiter-based technique (Ramage et al., [2001]). The fungi (10^6 yeast cells) were incubated for 48 h at 37°C in 96-well polystyrene microtiter plates (Corning®, Corning Incorporated, USA) containing Sabouraud-dextrose broth to accommodate biofilm formation. Following biofilm formation, the culture medium was aspirated and non-adherent cells removed by thoroughly washing the wells three times with sterile PBS (0.15 M NaCl, 0.01 M phosphate buffer, pH 7.2). Afterwards, the compounds, at the same concentrations used in the planktonic assays, were added to the wells, and the plates were incubated for further 48 h at 37°C. The metabolic activity was then evaluated using a colorimetric assay that measures the metabolic reduction of 2,3-bis (2-methoxy-4-nitro-5-sulfophenyl)-5-[(phenylamino) carbonyl]-2H-tetrazolium hydroxide (XTT; Sigma-Aldrich) to a water-soluble, brown formazan product (Peeters et al., [2008]). The biofilm MIC (bMIC) for each compound was established as the minimal concentration capable of inhibiting 50% of metabolic activity when compared to compound-free wells (Ziccardi et al., [2015]).

[5] = tested on: Candida haemulonii var. vulnera; test: Biofilm-growing cells, XTT assay, bMIC; assay type: cell-based; conditions: for GM-bMIC: geometric mean, C. haemulonii var. vulnera isolates; for bMIC: mature biofilm, 48 h, 50% inhibition of metabolic activity
Experimental: as §2

Candida haemulonii [6] = test: Biofilm-growing cells, XTT assay, bMIC; assay type: cell-based; conditions: for GM-bMIC: geometric mean, C. haemulonii isolates, values marked * do not include LIP Ch4 (>512); for bMIC: mature biofilm, 48 h, 50% inhibition of metabolic activity
Experimental: as §2

[7] = tested on: Candida haemulonii complex; test: Biofilm-growing cells, overall across isolates; assay type: cell-based; conditions: for Overall GM-bMIC: geometric mean across strains, values marked * do not include LIP Ch4 (>512)
Experimental: as §2

SMILES	GM-MIC (Candida duobushaemulonii [1])	MIC (Candida duobushaemulonii [1]; isolate LIP Ch1)	MIC (Candida duobushaemulonii [1]; isolate LIP Ch6)	MIC (Candida duobushaemulonii [1]; isolate LIP Ch8)	GM-MIC [2]	MIC ([2]; isolate LIP Ch5)	MIC ([2]; isolate LIP Ch9)	MIC ([2]; isolate LIP Ch11)	GM-MIC (Candida haemulonii [3])	MIC (Candida haemulonii [3]; isolate LIP Ch4)	MIC (Candida haemulonii [3]; isolate LIP Ch7)	MIC (Candida haemulonii [3]; isolate LIP Ch12)	Overall GM-MIC (C. haemulonii complex)	MIC (C. haemulonii complex)	GM-bMIC (Candida duobushaemulonii [4])	bMIC (Candida duobushaemulonii [4]; isolate LIP Ch1)	GM-bMIC [5]	bMIC ([5]; isolate LIP Ch9)	bMIC ([5]; isolate LIP Ch13)	GM-bMIC (Candida haemulonii [6])	other results
O.O.O=C([O-])c1ccccc1C(=O)[O-].[Mn+2].c1cnc2c(c1)ccc1cccnc12 [compound 8, [Mn(ph)(phen)(H2O)2]]	5.04 µg/mL	8 µg/mL	4 µg/mL	4 µg/mL	4 µg/mL	4 µg/mL	4 µg/mL	4 µg/mL	5.04 µg/mL	8 µg/mL	4 µg/mL	4 µg/mL	4.67 µg/mL	10.71 µM	10.08 mg/L	16 mg/L	16 mg/L	16 mg/L	8 mg/L	8^* mg/L	A549 (CC50) (A549 cells): 234.51 µg/mL; bMIC (Candida duobushaemulonii [4]; isolate LIP Ch6): 8 mg/L; bMIC (Candida duobushaemulonii [4]; isolate LIP Ch8): 8 mg/L; bMIC ([5]; isolate LIP Ch5): 32 mg/L; bMIC (Candida haemulonii [6]; isolate LIP Ch4): >512 mg/L; bMIC (Candida haemulonii [6]; isolate LIP Ch7): 4 mg/L; bMIC (Candida haemulonii [6]; isolate LIP Ch14): 16 mg/L; Overall GM-bMIC ([7]; in μM): 25.98 µM; Overall GM-bMIC [7]: 11.31 mg/L
[Ag+].[O-][Cl+3]([O-])([O-])[O-].c1cnc2c(c1)ccc1cccnc12.c1cnc2c(c1)ccc1cccnc12 [compound 17, [Ag(phen)2]ClO4]	1.59 µg/mL	2 µg/mL	1 µg/mL	2 µg/mL	0.63 µg/mL	1 µg/mL	0.5 µg/mL	0.5 µg/mL	1 µg/mL	1 µg/mL	1 µg/mL	1 µg/mL	1 µg/mL	1.76 µM	10.08 mg/L	16 mg/L	8 mg/L	0.5 mg/L	8 mg/L	20.16 mg/L	A549 (CC50) (A549 cells; MTT, 48 h incubation): 2.07 µg/mL; bMIC (Candida haemulonii [6]; isolate LIP Ch4): 32 mg/L; bMIC (Candida haemulonii [6]; isolate LIP Ch7): 32 mg/L; bMIC (Candida haemulonii [6]; isolate LIP Ch14): 8 mg/L; decrease in activity on going from planktonic to biofilm cells ([7]; biofilm MIC versus planktonic MIC): 12.3 fold; Overall GM-bMIC ([7]; in μM): 21.73 µM; Overall GM-bMIC [7]: 12.34 mg/L
O.O.O.O.O=C([O-])c1cccc(C(=O)[O-])c1.O=C([O-])c1cccc(C(=O)[O-])c1.[Mn+2].[Mn+2].c1cnc2c(c1)ccc1cccnc12.c1cnc2c(c1)ccc1cccnc12.c1cnc2c(c1)ccc1cccnc12 [compound 10, [Mn2(isoph)2(phen)3].4H2O]	6.35 µg/mL	8 µg/mL	8 µg/mL	4 µg/mL	4 µg/mL	4 µg/mL	4 µg/mL	4 µg/mL	6.35 µg/mL	8 µg/mL	8 µg/mL	4 µg/mL	5.44 µg/mL	5.15 µM	16 mg/L	16 mg/L	12.70 mg/L	8 mg/L	8 mg/L	16^* mg/L	A549 (CC50) (A549 cells; MTT, 48 h incubation): 255.87 µg/mL; bMIC (Candida duobushaemulonii [4]; isolate LIP Ch6): 16 mg/L; bMIC (Candida duobushaemulonii [4]; isolate LIP Ch8): 16 mg/L; bMIC ([5]; isolate LIP Ch5): 32 mg/L; bMIC (Candida haemulonii [6]; isolate LIP Ch4): >512 mg/L; bMIC (Candida haemulonii [6]; isolate LIP Ch7): 8 mg/L; bMIC (Candida haemulonii [6]; isolate LIP Ch14): 32 mg/L; Overall GM-bMIC ([7]; in μM): 13.96 µM; Overall GM-bMIC [7]: 14.67 mg/L
O.O.O.O.O=C1C(=O)c2cccnc2-c2ncccc21.O=C1C(=O)c2cccnc2-c2ncccc21.O=C1C(=O)c2cccnc2-c2ncccc21.[Cu+2].[O-][Cl+3]([O-])([O-])[O-].[O-][Cl+3]([O-])([O-])[O-] [compound 6, [Cu(phendione)3](ClO4)2.4H2O]	8 µg/mL	8 µg/mL	16 µg/mL	4 µg/mL	6.35 µg/mL	4 µg/mL	8 µg/mL	8 µg/mL	16 µg/mL	16 µg/mL	16 µg/mL	16 µg/mL	9.33 µg/mL	9.65 µM	12.70 mg/L	16 mg/L	32 mg/L	32 mg/L	32 mg/L	50.80 mg/L	A549 (CC50) (A549 cells; MTT, 48 h incubation): 0.68 µg/mL; bMIC (Candida duobushaemulonii [4]; isolate LIP Ch6): 16 mg/L; bMIC (Candida duobushaemulonii [4]; isolate LIP Ch8): 8 mg/L; bMIC ([5]; isolate LIP Ch5): 32 mg/L; bMIC (Candida haemulonii [6]; isolate LIP Ch4): 256 mg/L; bMIC (Candida haemulonii [6]; isolate LIP Ch7): 32 mg/L; bMIC (Candida haemulonii [6]; isolate LIP Ch14): 16 mg/L; Overall GM-bMIC ([7]; in μM): 28.42 µM; Overall GM-bMIC [7]: 27.43 mg/L
